In article PMC9594040, “Structure-Based Discovery of Negative Allosteric Modulators of the Metabotropic Glutamate Receptor 5” (ACS Chemical Biology, 2022):
Like-named read-outs stand apart in the source and are kept apart here.

Tests used:
human mGlu5 [1] = molecular target: T1, human mGlu5 (Homo sapiens, UniProt P41594); assay: IP1 functional assay, quisqualate-stimulated HEK293 cells expressing mGlu5; type: cell-based; parameters: expressed in transfected cells; host or cells: HEK293 cells, transient electroporation; glutamate transporter EAAC1 co-transfected; conditions: for functional activity in IP1 assay: agonist (quisqualate)-induced mGlu5-dependent IP1 production
T1 sequence (P41594 21-1212): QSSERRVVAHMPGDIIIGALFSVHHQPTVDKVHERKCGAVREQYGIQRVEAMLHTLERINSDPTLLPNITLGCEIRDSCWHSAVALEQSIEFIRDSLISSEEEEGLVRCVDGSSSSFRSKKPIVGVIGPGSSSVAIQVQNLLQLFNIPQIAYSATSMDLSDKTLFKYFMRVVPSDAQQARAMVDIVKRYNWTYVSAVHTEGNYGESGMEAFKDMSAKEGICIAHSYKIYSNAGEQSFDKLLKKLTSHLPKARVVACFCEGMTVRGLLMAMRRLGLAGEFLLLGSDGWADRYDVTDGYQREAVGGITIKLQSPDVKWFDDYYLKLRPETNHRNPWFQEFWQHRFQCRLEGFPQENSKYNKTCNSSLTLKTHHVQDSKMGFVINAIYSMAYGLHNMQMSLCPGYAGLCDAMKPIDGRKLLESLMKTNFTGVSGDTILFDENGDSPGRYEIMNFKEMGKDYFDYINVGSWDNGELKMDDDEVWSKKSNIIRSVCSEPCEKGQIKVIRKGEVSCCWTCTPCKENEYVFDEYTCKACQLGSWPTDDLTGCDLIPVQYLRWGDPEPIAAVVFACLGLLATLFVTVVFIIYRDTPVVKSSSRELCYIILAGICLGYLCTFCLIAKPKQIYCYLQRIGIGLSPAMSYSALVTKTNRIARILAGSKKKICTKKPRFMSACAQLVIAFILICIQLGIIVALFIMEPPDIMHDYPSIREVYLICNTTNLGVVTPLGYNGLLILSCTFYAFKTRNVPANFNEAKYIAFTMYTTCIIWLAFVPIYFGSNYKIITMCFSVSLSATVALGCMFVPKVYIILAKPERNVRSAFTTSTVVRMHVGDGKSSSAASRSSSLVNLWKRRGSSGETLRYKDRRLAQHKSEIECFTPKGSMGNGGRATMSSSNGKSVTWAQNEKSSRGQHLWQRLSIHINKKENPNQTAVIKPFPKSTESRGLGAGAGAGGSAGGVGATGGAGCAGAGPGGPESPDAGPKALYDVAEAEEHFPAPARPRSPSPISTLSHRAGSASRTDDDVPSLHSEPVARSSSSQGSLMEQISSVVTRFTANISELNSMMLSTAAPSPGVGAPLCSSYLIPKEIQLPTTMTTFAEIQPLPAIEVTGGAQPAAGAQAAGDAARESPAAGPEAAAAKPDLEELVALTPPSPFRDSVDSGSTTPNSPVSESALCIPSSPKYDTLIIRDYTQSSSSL
Procedure: Figure 3 Evaluation of compounds F1 and F2 in functional assays. Representative dose–response curve of compounds (a) F1 and (b) F2 in an IP1 functional assay. […] Each point was performed in triplicate and is shown as a mean ± SEM of 3–5 independent experiments.
HEK293 cells were cultured in Dulbecco’s modified Eagle’s medium (DMEM) supplemented with 10% fetal bovine serum (FBS) and were maintained at 37 °C in a humidified atmosphere with 5% CO2. Transient transfection was performed using electroporation in a volume of […] with […] of plasmid encoding SNAP-tag human mGlu5, […] plasmid encoding for the glutamate transporter EAAC1 plasmids, and 10 million of HEK293 cells in electroporation buffer (50 mM K2HPO4, 20 mM CH3COOK, and 20 mM KOH, pH 7.4). After electroporation (250 V, 0.5 mF, Bio–Rad Gene Pulser electroporator; Bio-Rad Laboratories, Hercules, CA), cells were resuspended in 10 mL of DMEM supplemented with 10% FBS and seeded for 24 h into black, clear-bottom 96-well culture plates (Greiner Bio-one), pretreated with Poly-L-Ornithine 1X, at a density of 100,000 cells per well. Following 24 h of transfection, HEK293 cells were incubated for 2 h with glutamate-free DMEM GlutaMAX-I (Life Technologies). The IP1 accumulation assay kit (Cisbio Bioassays, PerkinElmer) was used for the direct quantitative measurement of IP1. Cells were stimulated by quisqualate at EC80 alone and with various concentrations of allosteric compounds, incubated for 30 min at 37 °C, 5% CO2. Cells were then lysed using the conjugate-lysis buffer mixed with the d2-labeled IP1 analogue and the Lumi4-terbium cryptate-labeled anti-IP1 antibody according to the manufacturer’s instructions. After a 1 h incubation at room temperature, the HTRF measurement was performed after excitation at 337 nm with 50 μs delay. Terbium cryptate fluorescence and tr-FRET signals were measured at 620 and 665 nm, respectively, using a PheraStar fluorimeter (BMG Labtech).

human mGlu5 [2] = molecular target: T1, human mGlu5; assay: Radioligand displacement assay (radiolabeled MPEP) on membranes of HEK293 cells stably expressing mGlu5; conditions: Ki
Procedure: Treated cells were harvested with PBS/2 mM EDTA and washed three times with ice-cold PBS and frozen at −80 °C. The frozen cell pellet was resuspended in membrane buffer (25 mM Tris/7.4, 250 mM sucrose, 2.5 mM EDTA, 2 ug/ml aprotinin, 0.5 ug/ml leupeptin and 200 nM PMSF) and homogenized with a polytron 20–30 s at maximum power. After centrifugation at 18,000 RPM for 30 min at 4 °C, the pellet was resuspended in ice-cold membrane buffer, hand-homogenized, and centrifuged as described above. This pellet was further resuspended in ice-cold membrane buffer. The protein content was measured using the Bradford method with bovine serum albumin as the standard. The membrane homogenate was frozen at −80 °C before use. After thawing, the membranes were washed once and resuspended in ice-cold 50 mM Tris–HCl, 0.9% NaCl, pH 7.4 buffer. All incubations were performed at room temperature. For the displacement binding experiments, 15 μg of membranes were incubated with 5 nM the radioligand in the presence of 10 varying concentrations of the test compound for 2 h at room temperature with shaking. At the end of the respective incubations, the suspension was filtered onto PerkinElmer GF/C glass fiber filters (1450–421) pre-soaked in 0.5% polyethyleneimine and washed rapidly four times using a Tomtec Harvester 96 Mach III cell harvester (Tomtec, Hamden, CT) with 5 mL of cold wash buffer (50 mM Tris–HCl, pH 7.4). The radioactivity trapped on the filters was measured after heat sealing the filters with MeltiLexTM A (PerkinElmer, 1450–441) in a 1450 MicroBeta TriLux counter (PerkinElmer). […] IC50 values were derived from the inhibition curve, and Ki values were calculated according to the Cheng-Prusoff equation of Ki = IC50/(1 + [L]/Kd),[61] where [L] is the concentration of radioligand and Kd is its dissociation constant at the receptor, derived from the saturation isotherm.

[3] = quisqualate 50 nM, mean ± SEM of 3–5 independent experiments, read-out: pIC50 (converted)
[4] = radioligand displacement, mean ± SEM of two experiments
[5] = analogues of F1, read-out: IC50

| functional activity in IP1 assay (human mGlu5 [1]) | IC50 (human mGlu5 [1]; [3]) [nM] | Ki (human mGlu5 [2]; [4]) [nM] | Ki (human mGlu5 [2]; resynthesized pure sample of F2, new binding assays) [nM] | IC50 (human mGlu5 [1]; [5]) [nM] | Compound |
| --- | --- | --- | --- | --- | --- |
| acted as NAMs | 6310 | 430 ± 10 | – | – | COc1cccc(CNc2cccc(C#N)c2)c1 [F1] |
| acted as NAMs | 7940 | 920 ± 120 | 550 | – | COCc1cccc(/C=C/c2cccc(C)n2)c1 [F2] |
| inactive | – | – | – | > 100000 | N#Cc1cccc(NCc2ccccc2)c1 [FA1] |
| inactive | – | – | – | > 100000 | COc1cccc(CNc2ccccc2)c1 [FA2] |
| negatively modulated | – | 990 ± 150 | – | – | Cc1cnn(CC2CCCCN2C(=O)c2cc(-c3ccco3)on2)c1 (stereo not drawn) [L1] |
| negatively modulated | – | 1100 ± 100 | – | – | Cn1c(SCc2noc(-c3ccoc3)n2)nnc1-c1ccco1 [L2] |
